Data published in patent publication US9481670B2, “Triazine compounds” (Sphaera Pharma PTE. Ltd., priority 2011, dated 2016).

target: T1, PI3K alpha (Homo sapiens, UniProt P42336); test: P110 Alpha TR-FRET Assay (PI3K alpha kinase assay, HTRF Transcreener ADP Assay); assay type: biochemical; settings: PI3K (WT)
T1 construct: purchased Millipore Upstate
Procedure: PI3K alpha kinase assay may be done using HTRF Transcreener ADP Assay (Cisbio).
Composition of the reaction buffer was as follows 50 mM HEPES, pH 7.5, 5 mM MgCl2, 1 mM DTT, 30 μM Na3VO4. PI3 Kinase was procured from Millipore Upstate. […] ATP was used at final concentration of 10 μM. Corning 384 well white plates were used for the assay.
2 μl of diluted enzyme (50 ng), 3 μl of diluted compound and 5 μl of buffer were added, mixed then incubated for 20 minutes with shaking at 400 rpm. 3 μl of substrate (10 μM of ATP and 5 μM PIP2) were added to initiate the reaction. The samples were incubated for 20 min. At the end of the reaction time 10 μl of the Detection mix (5 μl of ADP-D2 and 5 μl of Anti-ADP-Cryptate) was added and the contents were incubated for 1 h. The reaction plate was directly read in an Envision Multilabel Plate Reader.

T1 sequence (P42336 whole entry): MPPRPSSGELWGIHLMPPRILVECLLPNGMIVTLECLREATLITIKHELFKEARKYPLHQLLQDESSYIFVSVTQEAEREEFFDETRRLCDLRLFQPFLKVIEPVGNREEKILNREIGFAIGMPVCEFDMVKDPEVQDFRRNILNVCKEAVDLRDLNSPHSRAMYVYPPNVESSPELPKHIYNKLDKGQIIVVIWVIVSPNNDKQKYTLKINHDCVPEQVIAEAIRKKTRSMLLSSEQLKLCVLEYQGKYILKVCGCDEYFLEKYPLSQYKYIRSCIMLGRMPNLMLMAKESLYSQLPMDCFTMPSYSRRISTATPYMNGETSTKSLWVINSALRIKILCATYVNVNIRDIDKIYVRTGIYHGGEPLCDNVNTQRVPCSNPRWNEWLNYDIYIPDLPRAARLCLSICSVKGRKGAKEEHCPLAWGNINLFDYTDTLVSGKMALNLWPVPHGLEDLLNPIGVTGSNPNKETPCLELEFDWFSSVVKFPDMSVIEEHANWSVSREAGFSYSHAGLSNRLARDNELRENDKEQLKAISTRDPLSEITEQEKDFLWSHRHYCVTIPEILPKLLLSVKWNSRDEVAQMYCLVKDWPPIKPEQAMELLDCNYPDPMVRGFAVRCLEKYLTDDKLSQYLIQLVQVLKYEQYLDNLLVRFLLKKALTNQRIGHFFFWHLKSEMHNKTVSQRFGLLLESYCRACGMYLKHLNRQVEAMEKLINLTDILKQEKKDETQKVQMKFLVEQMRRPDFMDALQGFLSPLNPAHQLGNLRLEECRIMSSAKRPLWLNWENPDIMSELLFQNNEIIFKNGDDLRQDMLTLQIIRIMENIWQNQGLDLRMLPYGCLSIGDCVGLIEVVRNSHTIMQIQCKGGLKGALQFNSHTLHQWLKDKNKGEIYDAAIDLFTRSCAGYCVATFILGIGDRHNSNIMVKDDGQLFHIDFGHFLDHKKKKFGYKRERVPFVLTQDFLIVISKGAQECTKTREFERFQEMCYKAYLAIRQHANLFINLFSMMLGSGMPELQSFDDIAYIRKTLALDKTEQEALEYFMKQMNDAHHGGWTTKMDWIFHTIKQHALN
T1 sequence (P27986 whole entry partner): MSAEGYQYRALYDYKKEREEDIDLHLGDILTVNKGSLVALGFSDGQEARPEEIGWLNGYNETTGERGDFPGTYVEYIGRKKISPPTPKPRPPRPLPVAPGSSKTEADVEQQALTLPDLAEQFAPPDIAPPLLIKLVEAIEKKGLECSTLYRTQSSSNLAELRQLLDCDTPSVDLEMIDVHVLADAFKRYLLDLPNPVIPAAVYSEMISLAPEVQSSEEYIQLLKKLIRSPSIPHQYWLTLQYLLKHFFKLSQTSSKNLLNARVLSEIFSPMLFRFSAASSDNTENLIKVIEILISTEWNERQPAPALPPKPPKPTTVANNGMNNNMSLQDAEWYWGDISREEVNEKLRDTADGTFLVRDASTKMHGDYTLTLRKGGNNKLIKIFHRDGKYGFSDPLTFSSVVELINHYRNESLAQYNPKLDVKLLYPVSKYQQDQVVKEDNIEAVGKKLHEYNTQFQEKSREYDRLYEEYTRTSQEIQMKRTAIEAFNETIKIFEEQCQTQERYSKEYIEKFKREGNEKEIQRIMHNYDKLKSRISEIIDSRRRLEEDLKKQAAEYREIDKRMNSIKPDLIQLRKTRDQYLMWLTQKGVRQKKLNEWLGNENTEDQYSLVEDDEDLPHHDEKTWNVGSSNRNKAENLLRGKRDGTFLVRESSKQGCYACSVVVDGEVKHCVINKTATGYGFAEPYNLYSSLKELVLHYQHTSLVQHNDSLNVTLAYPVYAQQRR

Row | IC50 [µM] | SMILES
1 | > 5 | CN(C)C(=O)c1ccc(Oc2nc(-c3cccc4[nH]ncc34)nc(N3CCCC(C(N)=O)C3)n2)cc1 (stereo not shown) [Compound 1039, 1-27-{4-1-[4-10-(dimethylcarbamoyl)phenoxy]-6-5-(1H-indazol-4-yl)-1,3,5-triazin-2-yl}piperidine-3-carboxamide]
2 | < 5 | CN(C)C(=O)c1cccc(Nc2nc(-c3cnc(N)nc3)nc(N3CCOCC3)n2)c1 [Compound 1040, 3-((4-(2-aminopyrimidin-5-yl)-6-morpholino-1,3,5-triazin-2-yl)amino)-N,N-dimethylbenzamide]
3 | < 5 | CN(C)C(=O)c1ccc(Oc2nc(-c3cnc4[nH]ccc4c3)nc(N3CCOCC3)n2)cc1 [Compound 1041, N,N-dimethyl-4-8-{[4-5-(morpholin-4-yl)-6-1-{1H-pyrrolo[2,3-b]pyridin-5-yl}-1,3,5-triazin-2-yl]oxy}benzamide]
4 | < 5 | Nc1ncc(-c2nc(N3CCOCC3)nc(N3CCOCC3)n2)s1 [Compound 1042, 5-7-[4-3,6-5-bis(morpholin-4-yl)-1,3,5-triazin-2-yl]-1,3-thiazol-2-amine]
5 | > 5 | CN(C)C(=O)c1ccc(Oc2nc(-c3cccc4[nH]ncc34)nc(N3CCOc4ccccc43)n2)cc1 [Compound 1043, 4-9-{[4-5-(3,4-dihydro-2H-1,4-benzoxazin-4-yl)-6-1-(1H-indazol-4-yl)-1,3,5-triazin-2-yl]oxy}-N,N-dimethylbenzamide]
6 | > 5 | CN(C)C(=O)c1ccc(Oc2nc(-c3cccc4[nH]ncc34)nc(N3CCC(=O)CC3)n2)cc1 [Compound 1044, 4-8-{[4-5-(1H-indazol-4-yl)-6-3-(4-30-oxopiperidin-1-yl)-1,3,5-triazin-2-yl]oxy}-N,N-dimethylbenzamide]
7 | > 5 | Cc1nc(N2CCOCC2)nc(N2CCOCC2)n1 [Compound 1045, 2-1-methyl-4-5,6-3-bis(morpholin-4-yl)-1,3,5-triazine]
8 | < 5 | NC(=O)c1cccc(Nc2nc(-c3cnc(N)nc3)nc(N3CCOCC3)n2)c1 [Compound 1046, 3-((4-(2-aminopyrimidin-5-yl)-6-morpholino-1,3,5-triazin-2-yl)amino)benzamide]
9 | > 5 | CN(C)C(=O)c1ccc(Oc2nc(-c3cccc4[nH]ncc34)nc(N3CC(C(N)=O)C3)n2)cc1 [Compound 1047, 1-7-{4-1-[4-11-(dimethylcarbamoyl)phenoxy]-6-5-(1H-indazol-4-yl)-1,3,5-triazin-2-yl}azetidine-3-carboxamide]
10 | < 5 | CS(=O)(=O)N[C@H]1CCC[C@H](Oc2nc(-c3cccc4c3cnn4S(C)(=O)=O)nc(N3CCOCC3)n2)C1 [Compound 1048, N-[(1S,3S)-3-14-{[4-1-(1-27-methanesulfonyl-1H-indazol-4-yl)-6-5-(morpholin-4-yl)-1,3,5-triazin-2-yl]oxy}cyclohexyl]methanesulfonamide]
11 | < 5 | CN(C)C(=O)N1CCN(Cc2nc(-c3ccc(N)nc3)nc(N3CCOCC3)n2)CC1 [Compound 1049, 4-((4-(6-aminopyridin-3-yl)-6-morpholino-1,3,5-triazin-2-yl)methyl)-N,N-dimethylpiperazine-1-carboxamide]
12 | > 5 | CN(C)C(=O)c1ccc(Oc2nc(-c3cccc4[nH]nnc34)nc(N3CCOCC3)n2)cc1 [Compound 1050, 4-14-{[4-1-(1H-1,2,3-benzotriazol-4-yl)-6-5-(morpholin-4-yl)-1,3,5-triazin-2-yl]oxy}-N,N-dimethylbenzamide]
13 | < 5 | Nc1ncc(-c2nc(N3CCOCC3)nc(N3CCNC(=O)CC3)n2)cn1 [Compound 1051, 1-6-[4-1-(2-22-aminopyrimidin-5-yl)-6-5-(morpholin-4-yl)-1,3,5-triazin-2-yl]-1,4-diazepan-5-one]
14 | < 5 | CN(C)C(=O)c1ccc(Oc2nc(-c3ccc4[nH]ccc4c3)nc(N3CCOCC3)n2)cc1 [Compound 1052, 4-14-{[4-1-(1H-indol-5-yl)-6-5-(morpholin-4-yl)-1,3,5-triazin-2-yl]oxy}-N,N-dimethylbenzamide]
15 | < 5 | Nc1ncc(-c2nc(N3CCOCC3)nc(N3CCN(S(N)(=O)=O)CC3)n2)cn1 [Compound 1053, 4-6-[4-1-(2-16-aminopyrimidin-5-yl)-6-5-(morpholin-4-yl)-1,3,5-triazin-2-yl]piperazine-1-sulfonamide]
16 | < 5 | O=C1CCc2ccc(Oc3nc(-c4cccc5[nH]ncc45)nc(N4CCOCC4)n3)cc2N1 [Compound 1054, 7-14-{[4-1-(1H-indazol-4-yl)-6-5-(morpholin-4-yl)-1,3,5-triazin-2-yl]oxy}-1,2,3,4-tetrahydroquinolin-2-one]
17 | > 5 | CN(C)C(=O)c1ccc(Oc2nc(-c3cccc4[nH]ncc34)nc(N3CC4(COC4)C3)n2)cc1 [Compound 1055, 4-8-{[4-5-(1H-indazol-4-yl)-6-3-{2-oxa-6-azaspiro[3.3]heptan-6-yl}-1,3,5-triazin-2-yl]oxy}-N,N-dimethylbenzamide]

Row | IC50 [µM] | SMILES
18 | > 5 | CN(C)C(=O)c1cccc(Nc2nc(-c3cccc4[nH]ncc34)nc(N3CC(C(N)=O)C3)n2)c1 [Compound 1056]
19 | > 5 | CN(C)C(=O)c1ccc(Oc2nc(NC3CCOCC3)nc(-c3cccc4[nH]ncc34)n2)cc1 [Compound 1057, 4-((4-(1H-indazol-4-yl)-6-((tetrahydro-2H-pyran-4-yl)amino)-1,3,5-triazin-2-yl)oxy)-N,N-dimethylbenzamide]
20 | < 5 | CN(C)C(=O)c1ccc(Oc2nc(-c3ccnc4[nH]ccc34)nc(N3CCOCC3)n2)cc1 [Compound 1058, N,N-dimethyl-4-14-{[4-5-(morpholin-4-yl)-6-1-{1H-pyrrolo[2,3-b]pyridin-4-yl}-1,3,5-triazin-2-yl]oxy}benzamide]
21 | > 5 | CN(C)C(=O)c1ccc(Oc2nc(-c3cccc4[nH]ncc34)nc(N3CCNC(=O)C3)n2)cc1 [Compound 1059, 4-7-{[4-5-(1H-indazol-4-yl)-6-3-(3-29-oxopiperazin-1-yl)-1,3,5-triazin-2-yl]oxy}-N,N-dimethylbenzamide]
22 | < 5 | CN(C)C(=O)c1cccc(Nc2nc(-c3ccc(N)nc3)nc(N3CCOCC3)n2)c1 [Compound 1060, 3-((4-(6-aminopyridin-3-yl)-6-morpholino-1,3,5-triazin-2-yl)amino)-N,N-dimethylbenzamide]
23 | > 5 | CN1CCN(c2nc(Oc3ccc(C(=O)N(C)C)cc3)nc(-c3cccc4[nH]ncc34)n2)CC1 [Compound 1061, 4-9-{[4-1-(1H-indazol-4-yl)-6-5-(4-30-methylpiperazin-1-yl)-1,3,5-triazin-2-yl]oxy}-N,N-dimethylbenzamide]
24 | < 5 | CS(=O)(=O)N1CCN(c2nc(-c3cnc(N)nc3)nc(N3CCOCC3)n2)CC1 [Compound 1062, 5-13-[4-3-(4-22-methanesulfonylpiperazin-1-yl)-6-5-(morpholin-4-yl)-1,3,5-triazin-2-yl]pyrimidin-2-amine]
25 | < 5 | O=C1CCc2cc(Oc3nc(-c4cccc5[nH]ncc45)nc(N4CCOCC4)n3)ccc2N1 [Compound 1063, 6-14-{[4-1-(1H-indazol-4-yl)-6-5-(morpholin-4-yl)-1,3,5-triazin-2-yl]oxy}-1,2,3,4-tetrahydroquinolin-2-one]
26 | < 5 | CN(C)C(=O)c1ccc(Oc2nc(-c3cccc4[nH]ccc34)nc(N3CCOCC3)n2)cc1 [Compound 1064, 4-14-{[4-1-(1H-indol-4-yl)-6-5-(morpholin-4-yl)-1,3,5-triazin-2-yl]oxy}-N,N-dimethylbenzamide]
27 | < 5 | CN(C)C(=O)c1ccc(Nc2nc(-c3ccc(N)nc3)nc(N3CCOCC3)n2)cc1 [Compound 1065, 4-((4-(6-aminopyridin-3-yl)-6-morpholino-1,3,5-triazin-2-yl)amino)-N,N-dimethylbenzamide]
28 | > 5 | C[C@H](Nc1nc(-c2cccc(NS(C)(=O)=O)c2)nc(N2CCOCC2)n1)C(=O)N1CCN(S(C)(=O)=O)CC1 [Compound 1066, N-[3-16-(4-1-{[(2S)-1-(4-30-methanesulfonylpiperazin-1-yl)-1-oxopropan-2-yl]amino}-6-2-(morpholin-4-yl)-1,3,5-triazin-2-yl)phenyl]methanesulfonamide]
29 | < 5 | CN(C)C(=O)c1cc(Oc2nc(-c3cccc4[nH]ncc34)nc(N3CCOCC3)n2)cs1 [Compound 1067, 4-14-{[4-1-(1H-indazol-4-yl)-6-5-(morpholin-4-yl)-1,3,5-triazin-2-yl]oxy}-N,N-dimethylthiophene-2-carboxamide]
30 | > 5 | CN(C)C(=O)c1ccc(Oc2nc(-c3cccc4[nH]ncc34)nc(N3C4CCC3COC4)n2)cc1 [Compound 1068, 4-9-{[4-1-(1H-indazol-4-yl)-6-5-{3-oxa-8-azabicyclo[3.2.1]octan-8-yl}-1,3,5-triazin-2-yl]oxy}-N,N-dimethylbenzamide]
31 | < 5 | CN(C)C(=O)NC1CCN(c2nc(-c3ccc(N)nc3)nc(N3CCOCC3)n2)CC1 [Compound 1069, 1-{1-7-[4-3-(6-16-aminopyridin-3-yl)-6-5-(morpholin-4-yl)-1,3,5-triazin-2-yl]piperidin-4-yl}-3,3-dimethylurea]
32 | > 5 | CN(C)C(=O)CNc1nc(-c2cccc3c2CCC3O)nc(N2CCOCC2)n1 (stereo not shown) [Compound 1070, 2-((4-(1-hydroxy-2,3-dihydro-1H-inden-4-yl)-6-morpholino-1,3,5-triazin-2-yl)amino)-N,N-dimethylacetamide]
33 | < 5 | Nc1ccc(-c2nc(CO)nc(N3CCOCC3)n2)cn1 [Compound 1071, 1-7-[4-3-(6-16-aminopyridin-3-yl)-6-5-(morpholin-4-yl)-1,3,5-triazin-2-yl]methanol]
34 | > 5 | CN(C)C(=O)c1ccc(Oc2nc(-c3cccc4[nH]ncc34)nc(N3CCOCC3)n2)nc1 [Compound 1072, 6-14-{[4-1-(1H-indazol-4-yl)-6-5-(morpholin-4-yl)-1,3,5-triazin-2-yl]oxy}-N,N-dimethylpyridine-3-carboxamide]
